Data taken from patent US12673927B2, “Substituted aminothiazoles as DGKzeta inhibitors for immune activation” (Deutsches Krebsforschungszentrum, priority 2020, dated 2026).

Biological target: T1, human DGKζ (Homo sapiens, UniProt Q13574)
T1 construct: made in house; host or cells: Sf9 insect cells, baculovirus
Test: Human DGKζ kinase activity inhibition assay (ADP-Glo)
Assay type: biochemical
Conditions: intermediates (lacking the R2 side chain; comparative); highest test concentration 20 μM; read-out: IC50 values of intermediates in in vitro human DGKζ kinase activity inhibition assays
Method: Human DGKζ Kinase Activity Inhibition Assay
Human diacylglycerol kinase zeta (DGKζ) inhibitory activity of compounds of the present invention was quantified employing the human DGKζ kinase activity assay as described in the following paragraphs. In essence, the enzyme activity was measured by quantification of the adenosine-di-phosphate (ADP) generated as a co-product of the enzyme reaction via the “ADP-Glo™ Kinase Assay” kit from the company Promega. This detection system works as follows: In a first step the adenosine-tri-phosphate (ATP) not consumed in the kinase reaction is quantitatively converted to cyclic adenosine-mono-phosphate (cAMP) employing an adenylate cyclase (“ADP-Glo-reagent”), then the adenylate cyclase is stopped and the ADP generated in the kinase reaction is converted to ATP, which subsequently generates in a luciferase-based reaction a glow-luminescence signal (“Kinase Detection Reagent”).
C-terminally FLAG-tagged, recombinant full-length human DGKζ (inhouse expressed in baculovirus infected insect cells, purified using anti-Flag pulldown and size exclusion chromatography) was used as enzyme. As an alternative, commercially available enzyme by Carnabio can be used. As substrate for the kinase, 1,2-dioleoyl-sn-glycerol, reconstituted in octyl-β-D-glucopyranoside micelles, was used. […] Subsequently, 22.55 volumes of a 510 mM solution of octyl-β-D-glucopyranoside (Sigma-Aldrich, Cat. #08001-10G) in 50 mM MOPS buffer (pH 7.4) were added, and the mixture was sonicated in an ultrasonic bath for 20 s. Then 35 volumes of 50 mM MOPS buffer (pH 7.4) were added to yield a solution of 0.28 mM 1,2 dioleoyl-sn-glycerol and 200 mM octyl-β-D-glucopyranoside, which was aliquoted, flash-frozen in liquid nitrogen, and stored at −20° C. until use.
For the assay 50 nl of a 100-fold concentrated solution of the test compound in dimethyl sulfoxide (DMSO, Sigma) was pipetted into either a white 1536-well or a white low-volume 384-well microtiter plate (both Greiner Bio-One, Frickenhausen, Germany). […] The concentration of DGKζ was adjusted depending of the activity of the enzyme lot and was chosen appropriate to have the assay in the linear range, a typical concentration is about 0.1 nM. The reaction was stopped by the addition of 2.5 μL of “ADP-Glo-reagent” (1 to 1.5 diluted with water) and the resulting mixture was incubated at 22° C. for 1 h to convert the ATP not consumed in the kinase reaction completely to cAMP. Subsequently 2.5 μl of the “kinase detection reagent” (1.2 fold more concentrated than recommended by the producer) were added, the resulting mixture was incubated at 22° C. for 1 h and then the luminescence measured with a suitable measurement instrument (e.g. Viewlux™ from Perkin-Elmer). The amount of emitted light was taken as a measure for the amount of ADP generated and thereby for the activity of the DGKζ.
The data were normalised (enzyme reaction without inhibitor=0% inhibition, all other assay components but no enzyme=100% inhibition).

T1 sequence (Q13574 with tags, fused parts or gaps): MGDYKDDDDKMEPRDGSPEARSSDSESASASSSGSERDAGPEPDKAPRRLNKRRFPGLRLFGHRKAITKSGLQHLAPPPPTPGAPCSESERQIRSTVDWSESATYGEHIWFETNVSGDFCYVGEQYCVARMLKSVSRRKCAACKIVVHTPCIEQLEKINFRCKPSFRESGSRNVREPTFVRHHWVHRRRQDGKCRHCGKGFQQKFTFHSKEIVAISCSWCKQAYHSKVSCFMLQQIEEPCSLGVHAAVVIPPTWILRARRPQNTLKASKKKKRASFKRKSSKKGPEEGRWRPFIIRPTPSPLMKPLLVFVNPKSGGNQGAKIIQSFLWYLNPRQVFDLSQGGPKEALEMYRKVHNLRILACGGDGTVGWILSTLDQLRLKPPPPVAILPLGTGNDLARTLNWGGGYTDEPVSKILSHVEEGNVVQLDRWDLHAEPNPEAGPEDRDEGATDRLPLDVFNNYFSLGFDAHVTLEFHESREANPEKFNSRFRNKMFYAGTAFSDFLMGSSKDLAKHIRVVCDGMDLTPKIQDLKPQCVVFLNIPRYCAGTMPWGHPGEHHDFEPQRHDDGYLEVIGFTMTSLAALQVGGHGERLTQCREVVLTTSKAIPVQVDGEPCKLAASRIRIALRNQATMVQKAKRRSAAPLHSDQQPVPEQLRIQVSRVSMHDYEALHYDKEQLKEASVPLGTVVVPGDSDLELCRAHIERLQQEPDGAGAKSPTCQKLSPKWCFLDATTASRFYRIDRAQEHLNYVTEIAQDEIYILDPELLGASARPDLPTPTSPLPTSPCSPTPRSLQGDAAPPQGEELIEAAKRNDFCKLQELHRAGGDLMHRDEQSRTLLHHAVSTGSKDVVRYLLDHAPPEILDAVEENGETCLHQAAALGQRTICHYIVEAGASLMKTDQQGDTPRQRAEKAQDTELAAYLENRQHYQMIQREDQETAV

IC50 [nM]	SMILES
> 20000	Nc1nc(Nc2ccc(F)cc2)sc1C(=O)c1ccc(F)cc1 [Example 65]
> 20000	Nc1nc(Nc2ccc(F)cc2F)sc1C(=O)c1ccccc1 [Example 66]
> 20000	Cc1ccc(C(=O)c2sc(Nc3ccc(F)cc3)nc2N)cc1 [Example 64]
> 20000	COc1ccc(Nc2nc(N)c(C(=O)c3ccccc3)s2)cc1 [Example 67]

Same assay, conditions: recombinant full-length human DGKζ, 55 μM ATP, 7 μM 1,2-dioleoyl-sn-glycerol, 20 min at 22° C.; read-out: IC50 in vitro human DGKζ kinase activity inhibition assay

SMILES	IC50 [nM]
COc1ccc(C(=O)c2sc(N(c3ccc(F)c(F)c3)C(C)C(N)=O)nc2N)cc1 (single isomer, unassigned) [Example 51.2, 2-(N-[4-amino-5-(4-methoxybenzoyl)thiazol-2-yl]-3,4-difluoro-anilino)propanamide]	872
Cc1cccc(N(c2nc(N)c(C(=O)c3ccccc3)s2)C(C)C(N)=O)c1 (single isomer, unassigned) [Example 76.2, 2-(N-(4-amino-5-benzoyl-thiazol-2-yl)-3-methyl-anilino)propanamide]	11000
CNC(=O)COc1ccc(C(=O)c2sc(N(c3ccc(F)cc3)C(C)C(N)=O)nc2N)cc1 (single isomer, unassigned) [Example 150, 2-(N-[4-amino-5-[4-[2-(methylamino)-2-oxo-ethoxy]benzoyl]thiazol-2-yl]-4-fluoro-anilino)propanamide]	372
CC(C(N)=O)N(c1ccc(F)cc1)c1nc(N)c(C(=O)c2ccc(OCC(N)=O)cc2)s1 (single isomer, unassigned) [Example 149, 2-(N-[4-amino-5-[4-(2-amino-2-oxo-ethoxy)benzoyl]thiazol-2-yl]-4-fluoro-anilino)propanamide]	405
CC(C(N)=O)N(c1ccc(Cl)c(F)c1)c1nc(N)c(C(=O)c2ccncc2)s1 (single isomer, unassigned) [Example 56.2, 2-(N-[4-amino-5-(pyridine-4-carbonyl)thiazol-2-yl]-4-chloro-3-fluoro-anilino)propanamide]	7640
CC(C(N)=O)N(c1ccc(F)cc1)c1nc(N)c(C(=O)c2ccc(OCc3ccccc3)cc2)s1 (single isomer, unassigned) [Example 170.2, 2-(N-[4-amino-5-(4-benzyloxybenzoyl)thiazol-2-yl]-4-fluoro-anilino)propanamide]	1000
CC(C(N)=O)N(c1ccc(Cl)c(F)c1)c1nc(N)c(C(=O)c2ccc(OC(F)F)nc2)s1 (single isomer, unassigned) [Example 164.2, 2-(N-[4-amino-5-[6-(difluoromethoxy)pyridine-3-carbonyl]thiazol-2-yl]-4-chloro-3-fluoro-anilino)propanamide]	944
NC(=O)CN(c1ccc(F)cc1)c1nc(N)c(C(=O)c2ccccc2)s1 (racemic) [Example 71]	2310
CC(C(N)=O)N(c1ccc(F)c(F)c1)c1nc(N)c(C(=O)c2ccc(OC(F)F)cc2)s1 (single isomer, unassigned) [Example 49.1, 2-(N-[4-amino-5-[4-(difluoromethoxy)benzoyl]thiazol-2-yl]-3,4-difluoro-anilino)propanamide]	1030
CNC(=O)COc1ccc(C(=O)c2sc(N(c3ccc(F)cc3)C(C)C(N)=O)nc2N)cc1 (single isomer, unassigned) [Example 151, 2-(N-[4-amino-5-[4-[2-(methylamino)-2-oxo-ethoxy]benzoyl]thiazol-2-yl]-4-fluoro-anilino)propanamide]	387

Continued, values first:

IC50 [nM]	SMILES
115	CC(C(N)=O)N(c1ccc(F)c(Cl)c1)c1nc(N)c(C(=O)c2ccncc2)s1 (single isomer, unassigned) [Example 160.1, 2-(N-[4-amino-5-(pyridine-4-carbonyl)thiazol-2-yl]-3-chloro-4-fluoro-anilino)propanamide]
3	CC(C(N)=O)N(c1ccc(F)c(F)c1)c1nc(N)c(C(=O)c2ccc(NC(=O)OCc3ccccc3)cc2)s1 (single isomer, unassigned) [Example 167.1, Benzyl N-[4-[4-amino-2-(N-(2-amino-1-methyl-2-oxo-ethyl)-3,4-difluoro-anilino)thiazole-5-carbonyl]phenyl]carbamate]
8.85	COc1ccc(C(=O)c2sc(N(c3ccc(F)c(F)c3)C(C)C(N)=O)nc2N)cc1 (single isomer, unassigned) [Example 51.1, 2-(N-[4-amino-5-(4-methoxybenzoyl)thiazol-2-yl]-3,4-difluoro-anilino)propanamide]
21.6	CC(C(N)=O)N(c1ccc(F)cc1)c1nc(N)c(C(=O)c2ccc(OCC(=O)Nc3ccc(C(N)=O)cc3)cc2)s1 (single isomer, unassigned) [Example 146, 4-([2-[4-[4-amino-2-(4-fluoro-N-[2-amino-1-methyl-2-oxo-ethyl]anilino)thiazole-5-carbonyl]phenoxy]acetyl]amino]benzamide]
12.7	CC(C(N)=O)N(c1ccc(F)cc1)c1nc(N)c(C(=O)c2ccc(OCC(=O)NCC34CC5CC(CC(C5)C3)C4)cc2)s1 (single isomer, unassigned) [Example 143, 2-(N-[5-[4-[2-(1-adamantylmethylamino)-2-oxo-ethoxy]benzoyl]-4-amino-thiazol-2-yl]-4-fluoro-anilino)propanamide]
20.7	Cc1nc(N(c2ccc(F)cc2)C(C)C(N)=O)sc1C(=O)c1ccc(OC(F)F)cc1 (racemic) [Example 54]
81.4	CC(C(N)=O)N(c1cccc(F)c1)c1nc(N)c(C(=O)c2ccccc2)s1 (single isomer, unassigned) [Example 74.2, 2-(N-(4-amino-5-benzoyl-thiazol-2-yl)-3-fluoro-anilino)propanamide]
24	COc1ccc(C(=O)c2sc(N(c3ccc(Cl)c(F)c3)C(C)C(N)=O)nc2N)cn1 (single isomer, unassigned) [Example 172.1, 2-(N-[4-amino-5-(6-methoxypyridine-3-carbonyl)thiazol-2-yl]-4-chloro-3-fluoro-anilino)propanamide]
51	CC(C(N)=O)N(c1ccc(F)cc1)c1nc(N)c(C(=O)c2ccc(C#N)c(F)c2)s1 (single isomer, unassigned) [Example 21.2, 2-(N-[4-amino-5-(4-cyano-3-fluoro-benzoyl)thiazol-2-yl]-4-fluoro-anilino)propanamide]
111	CC(C)NC(=O)COc1ccc(C(=O)c2sc(N(c3ccc(F)cc3)C(C)C(N)=O)nc2N)cc1 (single isomer, unassigned) [Example 152, 2-(N-[4-amino-5-[4-[2-(isopropylamino)-2-oxo-ethoxy]benzoyl]thiazol-2-yl]-4-fluoro-anilino)propanamide]
8.79	CC(C(N)=O)N(c1ccc(F)cc1)c1nc(N)c(C(=O)c2ccc(OCC(=O)NCCC34CC5CC(CC(C5)C3)C4)cc2)s1 (single isomer, unassigned) [Example 144]
2.66	CC(C(N)=O)N(c1ccc(F)cc1)c1nc(N)c(C(=O)c2ccc(OCC(=O)Nc3ccc(Cl)cc3)cc2)s1 (single isomer, unassigned) [Example 145, 2-(N-[4-amino-5-[4-[2-(4-chloroanilino)-2-oxo-ethoxy]benzoyl]thiazol-2-yl]-4-fluoro-anilino)propanamide]
5	CC(C(N)=O)N(c1ccc(F)c(F)c1)c1nc(N)c(C(=O)c2ccc(OC(F)F)nc2)s1 (single isomer, unassigned) [Example 163.1, 2-(N-[4-amino-5-[6-(difluoromethoxy)pyridine-3-carbonyl]thiazol-2-yl]-3,4-difluoro-anilino)propanamide]
107	CC(C)NC(=O)COc1ccc(C(=O)c2sc(N(c3ccc(F)cc3)C(C)C(N)=O)nc2N)cc1 (single isomer, unassigned) [Example 153, 2-(N-[4-amino-5-[4-[2-(isopropylamino)-2-oxo-ethoxy]benzoyl]thiazol-2-yl]-4-fluoro-anilino)propanamide]
2	CC(C(N)=O)N(c1ccc(Cl)c(F)c1)c1nc(N)c(C(=O)c2ccc(OCc3ccccc3)cc2)s1 (single isomer, unassigned) [Example 166.1, 2-(N-[4-amino-5-(4-benzyloxybenzoyl)thiazol-2-yl]-4-chloro-3-fluoro-anilino)propanamide]
